Source: patent US9302999B2, “Substituted triazoles as herbicides” (E. I. DU PONT DE NEMOURS AND COMPANY, priority 2012, dated 2016)

Tests used:
Assay type in all cases: in vivo
[1] = tested on: Russian thistle (Salsola iberica); assay: Test D pre-/postemergence: Russian thistle
From the text: (§1) Seeds of plant species selected from bluegrass (annual bluegrass, Poa annua), blackgrass (Alopecurus myosuroides), canarygrass (Phalaris minor), chickweed (common chickweed, Stellaria media), galium (catchweed bedstraw, Galium aparine), bromegrass, downy (downy bromegrass, Bromus tectorum), field poppy (Papaver rhoeas), field violet (Viola arvensis), foxtail, green (green foxtail, Setaria viridis), deadnettle (henbit deadnettle, Lamium amplexicaule), ryegrass, Italian (Italian ryegrass, Lolium multiflorum), kochia (Kochia scoparia), lambsquarters (Chenopodium album), oilseed rape (Brassica napus), pigweed (Amaranthus retroflexus), Russian thistle (Salsola iberica), chamomile (scentless chamomile, Matricaria inodora), speedwell (bird's-eye speedwell, Veronica persica), barley, spring (spring barley, Hordeum vulgare), wheat, spring (spring wheat, Triticum aestivum), buckwheat, wild (wild buckwheat, Polygonum convolvulus), mustard, wild (wild mustard, Sinapis arvensis), oat, wild (wild oat, Avena fatua), radish, wild (wild radish, Raphanus raphanistrum), windgrass (Apera spica-venti), barley, winter (winter barley, Hordeum vulgare), and wheat, winter (winter wheat, Triticum aestivum) were planted into a silt loam soil and treated preemergence with test chemicals formulated in a non-phytotoxic solvent mixture which included a surfactant. At the same time, these same crop and weed species were planted in pots containing the planting medium comprising spaghnum peat moss, vermiculite, wetting agent and starter nutrients and treated with postemergence applications of the test chemicals formulated in the same manner. Plants ranged in height from 2 to 18 cm (1- to 4-leaf stage).
(§2) Treated plants and controls were maintained in a controlled growth environment for 14 to 21 days after which time all species were compared to controls and visually evaluated. Plant response ratings, summarized in Table D, are based on a scale of 0 to 100 where 0 is no effect and 100 is complete control. A dash (-) response means no test result.

[2] = tested on: barley, winter (winter barley, Hordeum vulgare); assay: Test D pre-/postemergence: barley, winter
From the text: as §1, §2

[3] = tested on: foxtail, green (green foxtail, Setaria viridis); assay: Test D pre-/postemergence: foxtail, green
From the text: as §1, §2

[4] = Postemergence, 31 g ai/ha, scale 0 to 100 (0 no effect, 100 complete control)
[5] = Postemergence, 62 g ai/ha, scale 0 to 100 (0 no effect, 100 complete control)
[6] = Postemergence, 125 g ai/ha, scale 0 to 100, 0 no effect, 100 complete control
[7] = Postemergence, 250 g ai/ha, scale 0 to 100 (0 no effect, 100 complete control)
[8] = Preemergence, 31 g ai/ha, scale 0 to 100, 0 no effect, 100 complete control
[9] = Preemergence, 62 g ai/ha, scale 0 to 100
[10] = Preemergence, 125 g ai/ha, scale 0 to 100
[11] = Preemergence, 250 g ai/ha, scale 0 to 100
[12] = Postemergence, 16 g ai/ha, scale 0 to 100
[13] = Preemergence, 16 g ai/ha, scale 0 to 100, 0 no effect, 100 complete control

Compound | Plant response rating: Russian Thistle [1, 4] | Plant response rating: Russian Thistle [1, 5] | Plant response rating: Russian Thistle [1, 6] | Plant response rating: Russian Thistle [1, 7] | Plant response rating, Russian Thistle [1, 8] | Plant response rating, Russian Thistle [1, 9] | Plant response rating, Russian Thistle [1, 10] | Plant response rating, Russian Thistle [1, 11] | Plant response rating: Barley, Winter [2, 4] | Plant response rating: Barley, Winter [2, 5] | Plant response rating: Barley, Winter [2, 6] | Plant response rating: Barley, Winter [2, 7] | Plant response rating, Barley, Winter [2, 8] | Plant response rating: Foxtail, Green [3, 4] | Plant response rating: Foxtail, Green [3, 5] | Plant response rating: Foxtail, Green [3, 6] | Plant response rating: Foxtail, Green [3, 7] | Plant response rating, Russian Thistle [1, 12] | Plant response rating, Barley, Winter [2, 12] | Plant response rating, Foxtail, Green [3, 12] | further results
FC(F)(F)COc1nn(-c2ccc(C(F)(F)F)cc2)nc1Cc1ccnc(C(F)(F)F)c1 [Compound 14, 4-[[5-(2,2,2-trifluoroethoxy)-2-[4-(trifluoromethyl)phenyl]-2H-1,2,3-triazol-4-yl]methyl]-2-(trifluoromethyl)pyridine] | 0 | 75 | 100 | 100 | 0 | 0 | 10 | 40 | 10 | 25 | 35 | 40 | 0 | 10 | 25 | 30 | 95 | – | – | – | Plant response rating, Barley, Winter [2, 9]: 0; Plant response rating, Barley, Winter [2, 10]: 10; Plant response rating, Barley, Winter [2, 11]: 35; Plant response rating, Foxtail, Green [3, 8]: 0; Plant response rating, Foxtail, Green [3, 9]: 10; Plant response rating, Foxtail, Green [3, 10]: 75; Plant response rating, Foxtail, Green [3, 11]: 100
COc1nn(-c2ccc(C(F)(F)F)cc2)nc1Cc1ccnc(C(F)(F)F)c1 [Compound 15, 4-[[5-methoxy-2-[4-(trifluoromethyl)phenyl]-2H-1,2,3-triazol-4-yl]methyl]-2-(trifluoromethyl)pyridine] | 100 | 100 | 100 | 100 | 0 | 0 | 80 | 80 | 10 | 15 | 20 | 40 | 0 | 30 | 80 | 75 | 100 | 60 | 10 | 15 | Plant response rating, Barley, Winter [2, 9]: 5; Plant response rating, Barley, Winter [2, 10]: 20; Plant response rating, Barley, Winter [2, 11]: 30; Plant response rating, Foxtail, Green [3, 8]: 70; Plant response rating, Foxtail, Green [3, 9]: 100; Plant response rating, Foxtail, Green [3, 10]: 100; Plant response rating, Foxtail, Green [3, 11]: 100
Cc1nn(-c2ccc(C(F)(F)F)cn2)nc1Oc1ccnc(C(F)(F)F)c1 [Compound 23] | 50 | 70 | 90 | 100 | – | – | – | – | 0 | 10 | 10 | 20 | – | 15 | 20 | 25 | 25 | 50 | 0 | 15 | –
Cc1nn(-c2ccc(C(F)(F)F)cn2)nc1Cc1cccc(C(F)(F)F)c1 [Compound 106] | 25 | 30 | 60 | 100 | 0 | 0 | 0 | 0 | 5 | 5 | 5 | 10 | 0 | 10 | 20 | 30 | 40 | 20 | 0 | 0 | Plant response rating, Barley, Winter [2, 9]: 0; Plant response rating, Barley, Winter [2, 10]: 0; Plant response rating, Barley, Winter [2, 11]: 20; Plant response rating, Foxtail, Green [3, 8]: 0; Plant response rating, Foxtail, Green [3, 9]: 0; Plant response rating, Foxtail, Green [3, 10]: 0; Plant response rating, Foxtail, Green [3, 11]: 100
Cc1nn(-c2ccc(C(F)(F)F)cc2)nc1Oc1ccnc(C(F)(F)F)c1 [Compound 120] | 95 | 98 | 100 | 100 | 100 | 100 | 100 | 100 | 15 | 20 | 20 | 40 | 0 | 15 | 80 | 95 | 100 | 95 | 10 | 5 | Plant response rating, Russian Thistle [1, 13]: 100; Plant response rating, Barley, Winter [2, 13]: 0; Plant response rating, Barley, Winter [2, 9]: 10; Plant response rating, Barley, Winter [2, 10]: 15; Plant response rating, Barley, Winter [2, 11]: 40; Plant response rating, Foxtail, Green [3, 13]: 70; Plant response rating, Foxtail, Green [3, 8]: 100; Plant response rating, Foxtail, Green [3, 9]: 100; Plant response rating, Foxtail, Green [3, 10]: 100; Plant response rating, Foxtail, Green [3, 11]: 100
COc1nn(-c2ccc(C(F)(F)F)cc2)nc1Cc1ccnc(C(F)F)c1 [Compound 138] | 75 | 90 | 95 | 100 | – | – | – | – | 5 | 15 | 20 | 20 | – | 40 | 75 | 80 | 100 | 50 | 5 | 20 | –
